In patent US4327097A, “Novel penicillins” (Toyama Chemical Co., Ltd., priority 1974, dated 1982):

Columns and labels:
[1] = test system: Proteus vulgaris 3027; assay: MIC, plate method, standard strains; type: cell-based; settings: Table 3, standard strain; unit assumed
Procedure, shortened: (§1)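 Plates of Heart infusion agar (pH 7.4) containing compound dilutions; 10^4-cell inoculum, from 10^6 cells/ml; lowest concentration preventing growth reported.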

[2] = test system: Staphylococcus aureus 209p; assay: MIC, plate method, standard strains; type: cell-based; settings: Table 3, standard strain, Heart infusion agar pH 7.4; unit assumed
Procedure, shortened: as §1

[3] = test system: Escherichia coli NIHJ; assay: MIC, plate method, standard strains; type: cell-based; settings: Table 3, standard strain; unit assumed
Procedure, shortened: as §1

[4] = test system: Pseudomonas aeruginosa I.F.O.; assay: MIC, plate method, standard strains; type: cell-based; settings: Table 3, standard strain; unit assumed
Procedure, shortened: as §1

[5] = test system: Klebsiella pneumoniae; assay: MIC, plate method, standard strains; type: cell-based; settings: Table 3, standard strain; unit assumed
Procedure, shortened: as §1

[6] = test system: Staphylococcus aureus; assay: MIC against clinical isolates; type: cell-based; settings: Table 5-1, clinical isolate; unit assumed
[7] = test system: Proteus vulgaris; assay: MIC against clinical isolates; type: cell-based; settings: Table 5-6, clinical isolate; unit assumed
[8] = test system: Escherichia coli; assay: MIC against clinical isolates; type: cell-based; settings: Table 5-2, clinical isolate; unit assumed
[9] = test system: Klebsiella pneumoniae; assay: MIC against clinical isolates; type: cell-based; settings: Table 5-4, clinical isolate; unit assumed
[10] = test system: Pseudomonas aeruginosa; assay: MIC against clinical isolates; type: cell-based; settings: unit assumed
[11] = test system: Shigella flexneri; assay: MIC against clinical isolates; type: cell-based; settings: Table 5-5, clinical isolate; unit assumed
Method: (§2) The minimum inhibitory concentration (MIC) was determined by the plate method disclosed in "Chemotherapy" (Japan), Vol. 16, (1968), pages 98-99. The culture medium used was a Heart infusion agar (pH 7.4). The number of the cells per plate used in the inoculum was 10^4 (10^6 cells/ml).
(§3) MIC was determined in the same manner as in the preceding paragraph (1).

[12] = test system: Shigella sonnei; assay: MIC against clinical isolates; type: cell-based; settings: Table 5-5, clinical isolate; unit assumed
Method: as §2, §3

[13] = test system: β-lactamase, Pseudomonas aeruginosa GN 238; assay: Resistant activity against β-lactamase, iodometric assay; type: biochemical; settings: β-lactamase from Pseudomonas aeruginosa GN 238; Potassium Penicillin G = 100
Method: (3) Resistant activity against β-lactamase, Pseudomonas aerugionsa GN 238:
The resistant activity of each compound against β-lactamase was measured in the manner described below.
β-Lactamase was prepared from Pseudomonas aeruginosa GN 238. This microorganism was cultured in 100 ml of a medium containing 2 g of yeast extract, 10 g of polypeptone, 2 g of glucose, 7 g of disodium hydrogen phosphate, 2 g of potassium dihydrogen phosphate, 1.2 g of ammonium sulfate and 0.4 g of magnesium sulfate, per liter, in a 500-ml Erlenmeyer flask for 6 hrs. at 37° C. with shaking. The resulting cells were collected by centrifugation (5,000 r.p.m.×10 min.), washed three times with 0.1 M phosphate buffer (pH 7.0). Subsequently, the cells were subjected to sonication (20 KHz, 20 min.) and then centrifuged at 15,000 r.p.m. for 60 min. By using the supernatant of enzyme fluid, the resistance of each compound against β-lactamase was determined by the iodometric assay method. Each numeral shown in Table 7 is a relative activity value calculated by assuming as 100 the activity of the control Potassium Penicillin G.

[14] = test system: Salmonella typhi-murium; assay: MIC against clinical isolates; type: cell-based; settings: Table 5-5, clinical isolate; unit assumed
[15] = test system: Proteus morganii; assay: MIC against clinical isolates; type: cell-based; settings: Table 5-6, clinical isolate; unit assumed
[16] = test system: Proteus mirabilis; assay: MIC against clinical isolates; type: cell-based; settings: Table 5-6, clinical isolate; unit assumed

CN1CCN(C(=O)NC(C(=O)NC2C(=O)N3C2SC(C)(C)C3C(=O)O)c2ccccc2)C(=O)C1=O (single isomer, unassigned) [Compound 37]
< 0.4 µg/mL: MIC Proteus vulgaris [7]
> 200 µg/mL: MIC Staphylococcus aureus F-5 [6] | MIC Escherichia coli GN 3611 [8] | MIC Escherichia coli K-3 [8] | MIC Shigella flexneri JS 11215 [11] | MIC Salmonella typhi-murium SL 2136 [14]
3.13 µg/mL: MIC Staphylococcus aureus F-3 [6] | MIC Staphylococcus aureus MS 8588 [6] | MIC Staphylococcus aureus MS 8596 [6] | MIC Staphylococcus aureus MS 8684 [6] | MIC Escherichia coli GN 3435 [8] | MIC Escherichia coli K-4 [8]
50 µg/mL: MIC Pseudomonas aeruginosa GN ([10]; Table 5-3, clinical isolate, strain number not given) | MIC Pseudomonas aeruginosa GN 1035 ([10]; Table 5-3, clinical isolate) | MIC Pseudomonas neruginosa S-3 ([10]; Table 5-4, clinical isolate)
< 1.57 µg/mL: MIC Proteus vulgaris 3027 [1] | MIC Staphylococcus aureus 209p [2] | MIC Esche--richin coil NIHJ [3]
6.25 µg/mL: MIC Pseudomonas aeruginosa I.F.C [4] | MIC Klebsiella pneumoniae [5] | MIC Staphylococcus aureus F-4 [6] | MIC Escherichia coli GN 3481 [8] | MIC Escherichia coli K-2 [8] | MIC Pseudomonas aeruginosa GN 82 ([10]; Table 5-3, clinical isolate) | MIC Pseudomonas aeruginosa GN 221 ([10]; Table 5-3, clinical isolate) | MIC Shigella flexneri JS 11839 [11] | MIC Shigella sonnei JS 11755 [12]
100 µg/mL: MIC Klebsiella pneumoniae GN 4117 [9] | MIC Pseudomonas neruginosa S-4 ([10]; Table 5-4, clinical isolate) | MIC Shigella sonnei JS 11232 [12]
15%: Relative activity (%), resistant activity against β-lactamase [13]
200 µg/mL: MIC Escherichia coli GN 3465 [8] | MIC Klebsiella pneumoniae GN 4081 [9] | MIC Pseudomonas neruginosa S-1 ([10]; Table 5-4, clinical isolate)
12.5 µg/mL: MIC Staphylococcus aureus F-1 [6] | MIC Staphylococcus aureus MS 8713 [6] | MIC Escherichia coli GN 3452 [8] | MIC Escherichia coli K-1 [8] | MIC Klebsiella pneumoniae GN 917 [9] | MIC Pseudomonas aeruginosa GN 163 ([10]; Table 5-3, clinical isolate) | MIC Pseudomonas aeruginosa GN 376 ([10]; Table 5-3, clinical isolate) | MIC Pseudomonas aeruginosa GN 1091 ([10]; Table 5-3, clinical isolate)

CCCCN1CCN(C(=O)NC(C(=O)NC2C(=O)N3C2SC(C)(C)C3C(=O)O)c2ccccc2)C(=O)C1=O (single isomer, unassigned) [Compound 39]
< 0.1 µg/mL: MIC Esche--richin coil NIHJ [3]
1.57 µg/mL: MIC Klebsiella pneumoniae [5] | MIC Staphylococcus aureus F-2 [6] | MIC Staphylococcus aureus F-3 [6] | MIC Staphylococcus aureus MS 8588 [6] | MIC Staphylococcus aureus MS 8596 [6] | MIC Escherichia coli GN 3481 [8] | MIC Escherichia coli K-1 [8] | MIC Escherichia coli K-2 [8] | MIC Klebsiella pneumoniae GN 917 [9] | MIC Shigella sonnei JS 11755 [12]
0.4 µg/mL: MIC Proteus vulgaris 3027 [1] | MIC Staphylococcus aureus 209p [2]
25 µg/mL: MIC Shigella flexneri JS 11215 [11] | MIC Shigella sonnei JS 11232 [12]
> 200 µg/mL: MIC Staphylococcus aureus F-5 [6] | MIC Escherichia coli GN 3611 [8] | MIC Escherichia coli K-3 [8]
100 µg/mL: MIC Salmonella typhi-murium SL 2136 [14]
15%: Relative activity (%), resistant activity against β-lactamase [13]
0.79 µg/mL: MIC Shigella flexneri JS 11839 [11]
< 0.4 µg/mL: MIC Proteus morganii [15] | MIC Proteus vulgaris [7] | MIC Proteus mirabilis [16]
